According to the kinase profiling compilation of Christmann-Franck et al. (2016):

Assays:
ABL2 (human) = ABL2 (human) (UniProt P42684); test: KINOMEscan competition binding; conditions: compound 1.0 µM
ACVR1B (human) = ACVR1B (human) (UniProt P36896); test: KINOMEscan competition binding; conditions: compound 1.0 µM
AKT2 (human) = AKT2 (human) (UniProt P31751); test: KINOMEscan competition binding; conditions: compound 1.0 µM
BMPR1A (human) = BMPR1A (human) (UniProt P36894); test: KINOMEscan competition binding; conditions: compound 1.0 µM
BRSK2 (human) = BRSK2 (human) (UniProt Q8IWQ3); test: KINOMEscan competition binding; conditions: compound 1.0 µM
CAMKK1 (human) = CAMKK1 (human) (UniProt Q8N5S9); test: KINOMEscan competition binding; conditions: compound 1.0 µM
CDC2L2 (human) = CDC2L2 (human) (UniProt Q9UQ88); test: KINOMEscan competition binding; conditions: compound 1.0 µM
CDK4 CCND3 (human) = CDK4 CCND3 (human) (UniProt P11802+P30281); test: KINOMEscan competition binding; conditions: compound 1.0 µM
CDK9 (human) = CDK9 (human) (UniProt P50750); test: KINOMEscan competition binding; conditions: compound 1.0 µM
Chain of CDK9 (human) (P50750 whole entry, looked up): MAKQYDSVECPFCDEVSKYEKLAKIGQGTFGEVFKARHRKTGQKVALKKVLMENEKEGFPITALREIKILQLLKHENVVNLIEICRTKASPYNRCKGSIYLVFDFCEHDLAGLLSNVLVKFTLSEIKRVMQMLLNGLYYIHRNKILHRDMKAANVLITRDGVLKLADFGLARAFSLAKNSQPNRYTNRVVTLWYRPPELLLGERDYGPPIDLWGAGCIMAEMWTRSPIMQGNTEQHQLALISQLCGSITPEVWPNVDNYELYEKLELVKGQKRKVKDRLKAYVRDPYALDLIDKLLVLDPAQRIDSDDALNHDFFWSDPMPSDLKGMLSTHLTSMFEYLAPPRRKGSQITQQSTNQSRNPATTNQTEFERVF

CIT (human) = CIT (human) (UniProt O14578); test: KINOMEscan competition binding; conditions: for kinase still bound, per cent of control: compound 1.0 µM
Chain of CIT (human) (O14578 whole entry, looked up): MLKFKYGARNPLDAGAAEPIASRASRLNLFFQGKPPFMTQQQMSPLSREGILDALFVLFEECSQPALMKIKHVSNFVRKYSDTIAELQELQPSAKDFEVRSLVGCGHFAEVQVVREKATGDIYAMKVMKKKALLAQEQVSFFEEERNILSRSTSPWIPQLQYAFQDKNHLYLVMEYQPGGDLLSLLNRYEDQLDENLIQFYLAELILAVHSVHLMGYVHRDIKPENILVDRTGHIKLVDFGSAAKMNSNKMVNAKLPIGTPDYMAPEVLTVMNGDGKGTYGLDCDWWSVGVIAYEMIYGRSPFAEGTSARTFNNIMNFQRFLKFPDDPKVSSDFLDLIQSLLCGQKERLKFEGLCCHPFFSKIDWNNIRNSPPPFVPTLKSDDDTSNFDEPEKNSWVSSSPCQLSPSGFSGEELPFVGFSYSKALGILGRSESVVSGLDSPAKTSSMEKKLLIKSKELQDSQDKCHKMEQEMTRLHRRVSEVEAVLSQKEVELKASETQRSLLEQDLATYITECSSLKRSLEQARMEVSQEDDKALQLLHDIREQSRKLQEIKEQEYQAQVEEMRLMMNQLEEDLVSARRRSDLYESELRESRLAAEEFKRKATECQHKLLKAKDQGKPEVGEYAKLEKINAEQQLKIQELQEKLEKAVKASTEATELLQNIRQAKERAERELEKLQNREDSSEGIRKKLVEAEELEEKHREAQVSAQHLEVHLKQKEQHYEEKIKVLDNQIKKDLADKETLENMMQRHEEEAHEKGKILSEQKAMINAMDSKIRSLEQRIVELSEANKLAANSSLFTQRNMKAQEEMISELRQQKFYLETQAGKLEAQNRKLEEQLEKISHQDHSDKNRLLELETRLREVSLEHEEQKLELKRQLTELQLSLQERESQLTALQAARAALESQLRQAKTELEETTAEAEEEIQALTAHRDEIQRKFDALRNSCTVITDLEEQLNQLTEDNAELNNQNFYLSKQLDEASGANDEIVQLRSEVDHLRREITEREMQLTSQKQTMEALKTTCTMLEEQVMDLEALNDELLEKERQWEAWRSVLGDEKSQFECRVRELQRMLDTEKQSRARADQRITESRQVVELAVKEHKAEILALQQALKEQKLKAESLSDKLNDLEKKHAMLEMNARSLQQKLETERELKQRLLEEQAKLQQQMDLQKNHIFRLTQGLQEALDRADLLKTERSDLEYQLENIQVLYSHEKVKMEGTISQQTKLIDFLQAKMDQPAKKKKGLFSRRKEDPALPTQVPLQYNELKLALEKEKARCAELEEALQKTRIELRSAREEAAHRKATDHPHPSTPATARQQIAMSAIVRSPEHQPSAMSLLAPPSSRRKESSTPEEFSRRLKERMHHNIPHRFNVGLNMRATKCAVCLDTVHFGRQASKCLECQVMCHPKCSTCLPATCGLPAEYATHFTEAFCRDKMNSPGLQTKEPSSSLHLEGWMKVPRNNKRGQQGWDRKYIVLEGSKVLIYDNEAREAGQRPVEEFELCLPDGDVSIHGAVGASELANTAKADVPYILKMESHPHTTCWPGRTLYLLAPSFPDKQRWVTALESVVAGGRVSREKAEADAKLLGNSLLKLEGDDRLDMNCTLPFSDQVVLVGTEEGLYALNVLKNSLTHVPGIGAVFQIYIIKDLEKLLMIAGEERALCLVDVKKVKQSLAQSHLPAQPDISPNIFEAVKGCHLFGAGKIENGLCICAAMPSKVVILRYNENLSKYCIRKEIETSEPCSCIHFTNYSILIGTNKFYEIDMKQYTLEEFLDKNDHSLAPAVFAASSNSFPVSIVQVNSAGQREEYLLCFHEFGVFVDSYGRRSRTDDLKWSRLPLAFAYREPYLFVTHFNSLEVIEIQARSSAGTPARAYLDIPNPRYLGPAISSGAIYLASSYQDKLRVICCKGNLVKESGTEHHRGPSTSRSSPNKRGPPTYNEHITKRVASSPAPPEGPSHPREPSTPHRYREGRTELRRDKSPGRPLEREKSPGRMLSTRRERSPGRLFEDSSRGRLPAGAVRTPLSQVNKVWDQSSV

DDR2 (human) = DDR2 (human) (UniProt Q16832); test: KINOMEscan competition binding; conditions: compound 1.0 µM
DYRK2 (human) = DYRK2 (human) (UniProt Q92630); test: KINOMEscan competition binding; conditions: compound 1.0 µM
Chain of DYRK2 (human) (Q92630 whole entry, looked up): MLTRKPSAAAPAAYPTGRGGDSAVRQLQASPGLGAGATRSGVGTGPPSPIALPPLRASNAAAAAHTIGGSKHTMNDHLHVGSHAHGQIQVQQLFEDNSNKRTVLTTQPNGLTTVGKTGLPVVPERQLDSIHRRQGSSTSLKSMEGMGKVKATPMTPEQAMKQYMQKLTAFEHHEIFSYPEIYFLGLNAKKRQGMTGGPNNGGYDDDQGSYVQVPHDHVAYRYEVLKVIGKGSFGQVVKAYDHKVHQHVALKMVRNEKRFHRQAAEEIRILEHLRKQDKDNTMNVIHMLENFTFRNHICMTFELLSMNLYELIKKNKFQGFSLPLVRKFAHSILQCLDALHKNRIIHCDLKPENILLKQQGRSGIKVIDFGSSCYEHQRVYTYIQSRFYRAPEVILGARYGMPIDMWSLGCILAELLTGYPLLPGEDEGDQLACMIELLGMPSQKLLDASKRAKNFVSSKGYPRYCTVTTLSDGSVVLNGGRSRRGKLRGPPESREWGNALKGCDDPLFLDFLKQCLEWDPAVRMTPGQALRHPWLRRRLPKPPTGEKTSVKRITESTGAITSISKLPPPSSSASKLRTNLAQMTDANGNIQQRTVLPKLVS

EGFR (human) = EGFR (human) (UniProt P00533); test: KINOMEscan competition binding; conditions: compound 1.0 µM
[1] = system: EGFR (human), P00533 [746-750 del]; test: KINOMEscan competition binding; conditions: compound 1.0 µM
ERBB3 (human) = ERBB3 (human) (UniProt P21860); test: KINOMEscan competition binding; conditions: compound 1.0 µM
ERBB4 (human) = ERBB4 (human) (UniProt Q15303); test: KINOMEscan competition binding; conditions: compound 1.0 µM
FLT4 (human) = FLT4 (human) (UniProt P35916); test: KINOMEscan competition binding; conditions: compound 1.0 µM
GAK (human) = GAK (human) (UniProt O14976); test: KINOMEscan competition binding; conditions: compound 1.0 µM
HIPK3 (human) = HIPK3 (human) (UniProt Q9H422); test: KINOMEscan competition binding; conditions: compound 1.0 µM
INSRR (human) = INSRR (human) (UniProt P14616); test: KINOMEscan competition binding; conditions: compound 1.0 µM
[2] = molecular target: JAK1 JH2 pseudokinase (human) (UniProt P23458); test: KINOMEscan competition binding; conditions: compound 1.0 µM
[3] = molecular target: JAK3 JH1 catalytic (human) (UniProt P52333); test: KINOMEscan competition binding; conditions: compound 1.0 µM
MAP2K7 (human) = MAP2K7 (human) (UniProt O14733); test: KINOMEscan competition binding; conditions: compound 1.0 µM
MAP3K13 (human) = MAP3K13 (human) (UniProt O43283); test: KINOMEscan competition binding; conditions: compound 1.0 µM
MAP4K1 (human) = MAP4K1 (human) (UniProt Q92918); test: KINOMEscan competition binding; conditions: compound 1.0 µM
MAPK11 (human) = MAPK11 (human) (UniProt Q15759); test: KINOMEscan competition binding; conditions: compound 1.0 µM
MAPK15 (human) = MAPK15 (human) (UniProt Q8TD08); test: KINOMEscan competition binding; conditions: compound 1.0 µM
MYLK2 (human) = MYLK2 (human) (UniProt Q9H1R3); test: KINOMEscan competition binding; conditions: compound 1.0 µM
[4] = system: PIK3CA (human), P42336 [C420R]; test: KINOMEscan competition binding; conditions: compound 1.0 µM
[5] = system: PIK3CA (human), P42336 [M1043I]; test: KINOMEscan competition binding; conditions: compound 1.0 µM
PIP4K2B (human) = PIP4K2B (human) (UniProt P78356); test: KINOMEscan competition binding; conditions: compound 1.0 µM
PRKD1 (human) = PRKD1 (human) (UniProt Q15139); test: KINOMEscan competition binding; conditions: compound 1.0 µM
RIPK4 (human) = RIPK4 (human) (UniProt P57078); test: KINOMEscan competition binding; conditions: compound 1.0 µM
Chain of RIPK4 (human) (P57078 whole entry, looked up): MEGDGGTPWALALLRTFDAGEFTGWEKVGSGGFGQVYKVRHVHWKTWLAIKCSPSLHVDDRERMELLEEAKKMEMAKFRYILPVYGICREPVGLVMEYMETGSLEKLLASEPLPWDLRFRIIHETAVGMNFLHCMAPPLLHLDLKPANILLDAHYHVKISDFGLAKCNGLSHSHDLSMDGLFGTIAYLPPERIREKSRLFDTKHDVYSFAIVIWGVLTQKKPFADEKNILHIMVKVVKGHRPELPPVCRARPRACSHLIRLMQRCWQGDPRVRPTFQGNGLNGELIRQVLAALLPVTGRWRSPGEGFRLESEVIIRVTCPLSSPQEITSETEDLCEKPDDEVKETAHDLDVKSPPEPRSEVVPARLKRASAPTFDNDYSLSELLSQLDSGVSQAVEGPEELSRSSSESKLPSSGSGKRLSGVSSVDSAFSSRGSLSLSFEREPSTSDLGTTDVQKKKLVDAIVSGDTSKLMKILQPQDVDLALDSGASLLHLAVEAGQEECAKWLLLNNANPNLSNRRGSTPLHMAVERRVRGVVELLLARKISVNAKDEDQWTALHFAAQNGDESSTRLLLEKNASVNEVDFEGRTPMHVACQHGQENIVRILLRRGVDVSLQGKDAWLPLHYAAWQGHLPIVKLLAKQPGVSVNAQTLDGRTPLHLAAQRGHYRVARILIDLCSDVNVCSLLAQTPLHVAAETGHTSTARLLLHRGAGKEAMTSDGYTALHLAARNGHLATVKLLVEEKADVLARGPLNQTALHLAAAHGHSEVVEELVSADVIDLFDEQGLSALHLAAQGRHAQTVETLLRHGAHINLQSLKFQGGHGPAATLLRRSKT

RPS6KA6 KD2 (human) = RPS6KA6 KD2 (human) (UniProt Q9UK32); test: KINOMEscan competition binding; conditions: compound 1.0 µM
Chain of RPS6KA6 KD2 (human) (Q9UK32 whole entry, looked up): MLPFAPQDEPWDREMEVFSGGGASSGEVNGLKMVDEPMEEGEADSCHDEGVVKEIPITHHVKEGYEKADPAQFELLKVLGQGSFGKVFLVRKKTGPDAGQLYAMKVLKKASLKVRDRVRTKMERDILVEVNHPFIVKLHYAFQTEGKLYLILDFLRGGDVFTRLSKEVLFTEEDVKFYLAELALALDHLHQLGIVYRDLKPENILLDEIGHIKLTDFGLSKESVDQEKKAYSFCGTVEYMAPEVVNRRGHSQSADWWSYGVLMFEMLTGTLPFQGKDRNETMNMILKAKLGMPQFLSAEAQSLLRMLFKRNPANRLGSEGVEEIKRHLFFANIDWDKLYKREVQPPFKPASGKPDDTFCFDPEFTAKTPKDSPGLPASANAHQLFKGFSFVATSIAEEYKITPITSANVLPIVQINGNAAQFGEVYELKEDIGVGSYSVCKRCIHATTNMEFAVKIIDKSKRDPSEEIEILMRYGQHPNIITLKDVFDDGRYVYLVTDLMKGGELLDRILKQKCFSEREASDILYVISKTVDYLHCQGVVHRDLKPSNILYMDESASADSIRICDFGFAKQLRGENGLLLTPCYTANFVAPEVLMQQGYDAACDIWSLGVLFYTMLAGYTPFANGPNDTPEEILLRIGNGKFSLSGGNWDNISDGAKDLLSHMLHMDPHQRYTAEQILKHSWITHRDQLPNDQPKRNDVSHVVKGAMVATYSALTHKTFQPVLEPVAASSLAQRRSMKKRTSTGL

SGK110 (human) = SGK110 (human) (UniProt P0C264); test: KINOMEscan competition binding; conditions: compound 1.0 µM
SIK1 (human) = SIK1 (human) (UniProt P57059); test: KINOMEscan competition binding; conditions: compound 1.0 µM
SIK3 (human) = SIK3 (human) (UniProt Q9Y2K2); test: KINOMEscan competition binding; conditions: compound 1.0 µM
SNRK (human) = SNRK (human) (UniProt Q9NRH2); test: KINOMEscan competition binding; conditions: compound 1.0 µM
STK24 (human) = STK24 (human) (UniProt Q9Y6E0); test: KINOMEscan competition binding; conditions: compound 1.0 µM
STK39 (human) = STK39 (human) (UniProt Q9UEW8); test: KINOMEscan competition binding; conditions: compound 1.0 µM
VRK2 (human) = VRK2 (human) (UniProt Q86Y07); test: KINOMEscan competition binding; conditions: compound 1.0 µM
KIT (human) = KIT (human) (UniProt P10721)

Chain of ACVR1B (human) (P36896 whole entry, looked up): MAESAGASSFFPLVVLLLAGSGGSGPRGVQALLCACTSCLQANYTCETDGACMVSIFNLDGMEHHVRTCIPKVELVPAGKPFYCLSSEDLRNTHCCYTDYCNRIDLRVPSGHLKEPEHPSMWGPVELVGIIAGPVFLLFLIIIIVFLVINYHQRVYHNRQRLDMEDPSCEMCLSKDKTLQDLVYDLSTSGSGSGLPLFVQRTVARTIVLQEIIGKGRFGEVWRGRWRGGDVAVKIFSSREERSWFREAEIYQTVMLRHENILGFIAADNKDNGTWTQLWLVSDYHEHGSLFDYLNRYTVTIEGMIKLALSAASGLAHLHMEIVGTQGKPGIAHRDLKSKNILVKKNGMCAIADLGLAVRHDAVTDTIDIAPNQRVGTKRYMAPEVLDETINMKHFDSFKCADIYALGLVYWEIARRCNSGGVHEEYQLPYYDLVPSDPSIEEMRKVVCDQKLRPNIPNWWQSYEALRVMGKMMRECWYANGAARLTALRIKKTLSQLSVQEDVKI

`CN(C)C/C=C/C(=O)Nc1cccc(C(=O)Nc2ccc(Nc3nccc(-c4c(-c5ccccc5)nn5ccccc45)n3)cc2)c1` gave a kinase still bound, per cent of control (ABL2 (human)) of 21%, a kinase still bound, per cent of control (ACVR1B (human)) of 8.4% and a kinase still bound, per cent of control (AKT2 (human)) of 100%. It also gave a kinase still bound, per cent of control (BMPR1A (human)) of 66%, a kinase still bound, per cent of control (BRSK2 (human)) of 100% and a kinase still bound, per cent of control (CAMKK1 (human)) of 100%. It also gave a kinase still bound, per cent of control (CDC2L2 (human)) of 32%, a kinase still bound, per cent of control (CDK4 CCND3 (human)) of 81% and a kinase still bound, per cent of control (CDK9 (human)) of 100%. For the same compound, the Kd (CIT (human)) was 0.095 µM, the kinase still bound, per cent of control (CIT (human)) was 0.3% and the kinase still bound, per cent of control (DDR2 (human)) was 9%. The kinase still bound, per cent of control (DYRK2 (human)) was 100%, the kinase still bound, per cent of control (EGFR (human)) was 1.8% and the kinase still bound, per cent of control [1] was 0%. For the same compound, the kinase still bound, per cent of control (ERBB3 (human)) was 43%, the kinase still bound, per cent of control (ERBB4 (human)) was 5.4% and the kinase still bound, per cent of control (FLT4 (human)) was 7.8%. It also gave a kinase still bound, per cent of control (GAK (human)) of 2.4%, a kinase still bound, per cent of control (HIPK3 (human)) of 100% and a kinase still bound, per cent of control (INSRR (human)) of 97%. The kinase still bound, per cent of control [2] was 79%, the kinase still bound, per cent of control [3] was 49% and the kinase still bound, per cent of control (MAP2K7 (human)) was 89%. It also gave a kinase still bound, per cent of control (MAP3K13 (human)) of 100%, a kinase still bound, per cent of control (MAP4K1 (human)) of 69% and a kinase still bound, per cent of control (MAPK11 (human)) of 6.6%. For the same compound, the kinase still bound, per cent of control (MAPK15 (human)) was 93%, the kinase still bound, per cent of control (MYLK2 (human)) was 100% and the kinase still bound, per cent of control [4] was 100%. For the same compound, the kinase still bound, per cent of control [5] was 100%, the kinase still bound, per cent of control (PIP4K2B (human)) was 100% and the kinase still bound, per cent of control (PRKD1 (human)) was 20%. For the same compound, the kinase still bound, per cent of control (RIPK4 (human)) was 100%, the kinase still bound, per cent of control (RPS6KA6 KD2 (human)) was 13% and the kinase still bound, per cent of control (SGK110 (human)) was 100%. For the same compound, the kinase still bound, per cent of control (SIK1 (human)) was 29%, the kinase still bound, per cent of control (SIK3 (human)) was 100% and the kinase still bound, per cent of control (SNRK (human)) was 100%. It also gave a kinase still bound, per cent of control (STK24 (human)) of 88%, a kinase still bound, per cent of control (STK39 (human)) of 82% and a kinase still bound, per cent of control (VRK2 (human)) of 85%. The IC50 (KIT (human)) was 1.32 µM.

`Cc1cc(NC(=O)c2cccc(NC(=O)/C=C/CN(C)C)c2)ccc1Nc1nccc(-c2cccnc2)n1` was tested, and the kinase still bound, per cent of control (ABL2 (human)) was 97%, the kinase still bound, per cent of control (ACVR1B (human)) was 88% and the kinase still bound, per cent of control (AKT2 (human)) was 100%. The kinase still bound, per cent of control (BMPR1A (human)) was 100%, the kinase still bound, per cent of control (BRSK2 (human)) was 99% and the kinase still bound, per cent of control (CAMKK1 (human)) was 100%. The kinase still bound, per cent of control (CDC2L2 (human)) was 98%, the kinase still bound, per cent of control (CDK4 CCND3 (human)) was 60% and the kinase still bound, per cent of control (CDK9 (human)) was 100%. For the same compound, the kinase still bound, per cent of control (CIT (human)) was 100%, the kinase still bound, per cent of control (DDR2 (human)) was 89% and the kinase still bound, per cent of control (DYRK2 (human)) was 20%. For the same compound, the kinase still bound, per cent of control (EGFR (human)) was 100%, the kinase still bound, per cent of control [1] was 90% and the kinase still bound, per cent of control (ERBB3 (human)) was 93%. It also gave a kinase still bound, per cent of control (ERBB4 (human)) of 96%, a kinase still bound, per cent of control (FLT4 (human)) of 100% and a kinase still bound, per cent of control (GAK (human)) of 92%. The kinase still bound, per cent of control (HIPK3 (human)) was 100%, the kinase still bound, per cent of control (INSRR (human)) was 100% and the kinase still bound, per cent of control [2] was 91%. For the same compound, the kinase still bound, per cent of control [3] was 87%, the kinase still bound, per cent of control (MAP2K7 (human)) was 59% and the kinase still bound, per cent of control (MAP3K13 (human)) was 93%. It also gave a kinase still bound, per cent of control (MAP4K1 (human)) of 89%, a kinase still bound, per cent of control (MAPK11 (human)) of 20% and a kinase still bound, per cent of control (MAPK15 (human)) of 100%. The kinase still bound, per cent of control (MYLK2 (human)) was 13%, the kinase still bound, per cent of control [4] was 99% and the kinase still bound, per cent of control [5] was 94%. For the same compound, the kinase still bound, per cent of control (PIP4K2B (human)) was 99%, the kinase still bound, per cent of control (PRKD1 (human)) was 100% and the kinase still bound, per cent of control (RIPK4 (human)) was 79%. It also gave a kinase still bound, per cent of control (RPS6KA6 KD2 (human)) of 76%, a kinase still bound, per cent of control (SGK110 (human)) of 95% and a kinase still bound, per cent of control (SIK1 (human)) of 100%. The kinase still bound, per cent of control (SIK3 (human)) was 100%, the kinase still bound, per cent of control (SNRK (human)) was 100% and the kinase still bound, per cent of control (STK24 (human)) was 79%. The kinase still bound, per cent of control (STK39 (human)) was 95%, the kinase still bound, per cent of control (VRK2 (human)) was 97% and the IC50 (KIT (human)) was over 10 µM.
